Values joined by “and” are separate entries in the source; they are usually repeats but may differ in a detail not shown here. Equal values may be shown once. Read-outs that look alike come from different tables or passages of the source.
Columns and labels:
AChE [1] = biological target: T1, AChE (Electrophorus electricus, UniProt O42275); test: biochemical; conditions: for IC50: 0.05 Unit/mL enzyme, pH 7.4, 37°C, 30 min, triplicate, mean ± SEM; for inhibition at 100 µM: read-out: Inhibition of AChE
T1 construct: purchased Sigma-Aldrich Co. (St. Louis, Missouri, United States) C3389
T1 sequence (O42275 24-633): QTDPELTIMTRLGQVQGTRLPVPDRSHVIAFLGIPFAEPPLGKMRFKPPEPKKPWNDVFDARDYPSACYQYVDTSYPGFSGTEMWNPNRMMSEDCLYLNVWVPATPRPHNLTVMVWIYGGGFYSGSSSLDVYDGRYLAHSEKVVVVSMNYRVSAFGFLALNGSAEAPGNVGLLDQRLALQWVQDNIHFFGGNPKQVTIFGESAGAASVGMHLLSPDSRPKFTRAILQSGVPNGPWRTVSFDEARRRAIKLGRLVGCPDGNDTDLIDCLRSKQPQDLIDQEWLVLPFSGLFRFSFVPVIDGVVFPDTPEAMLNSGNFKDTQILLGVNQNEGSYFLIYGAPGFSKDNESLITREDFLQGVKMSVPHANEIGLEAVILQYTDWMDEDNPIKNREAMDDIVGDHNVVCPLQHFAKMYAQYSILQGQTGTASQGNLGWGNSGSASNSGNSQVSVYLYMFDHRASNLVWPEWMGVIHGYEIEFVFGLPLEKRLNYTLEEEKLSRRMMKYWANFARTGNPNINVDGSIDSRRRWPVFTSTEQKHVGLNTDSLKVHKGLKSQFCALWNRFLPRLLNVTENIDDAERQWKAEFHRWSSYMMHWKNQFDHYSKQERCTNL
Protocol: (§1) All HPLC solvents were purchased from Guangdong Guanghua Sci-Tech Co. Ltd. (Guangzhou, China). […] All chemicals and solvents used in column chromatography and assays were acquired from commercial sources.
(§2) 25 µL of 1 mM DTNB [5,5′-dithiobis (2-nitrobenzoic acide)] and 25 µL of 5 mM substrate, acetylthiocholine iodide (A5751), and butyrylthiocholine iodide (B3253) were sequentially added to wells in the plate. […] The inhibition ratio was calculated using the equation: Inhibitory activity(%)=[(ΔC-ΔI)/ΔC]×100 Where C and I are the intensity of control and inhibitor after 20 min, respectively.
(§3) Compounds were first evaluated in vitro for their inhibitory activities against AChE and BuChE at a concentration of 100 µM.

BuChE [2] = biological target: T2, BuChE (Equus caballus, UniProt P81908); test: Enzyme kinetics on BuChE (Lineweaver-Burk and Dixon plots); type: biochemical; conditions: for Ki: Dixon plots, read-out: BuChE K i; for BuChE Inhibition type: Lineweaver-Burk plots, compound 2–90 µM, substrate 0.07–5 mM
T2 construct: purchased Sigma-Aldrich Co. (St. Louis, Missouri, United States) C1057
T2 sequence (P81908 whole entry): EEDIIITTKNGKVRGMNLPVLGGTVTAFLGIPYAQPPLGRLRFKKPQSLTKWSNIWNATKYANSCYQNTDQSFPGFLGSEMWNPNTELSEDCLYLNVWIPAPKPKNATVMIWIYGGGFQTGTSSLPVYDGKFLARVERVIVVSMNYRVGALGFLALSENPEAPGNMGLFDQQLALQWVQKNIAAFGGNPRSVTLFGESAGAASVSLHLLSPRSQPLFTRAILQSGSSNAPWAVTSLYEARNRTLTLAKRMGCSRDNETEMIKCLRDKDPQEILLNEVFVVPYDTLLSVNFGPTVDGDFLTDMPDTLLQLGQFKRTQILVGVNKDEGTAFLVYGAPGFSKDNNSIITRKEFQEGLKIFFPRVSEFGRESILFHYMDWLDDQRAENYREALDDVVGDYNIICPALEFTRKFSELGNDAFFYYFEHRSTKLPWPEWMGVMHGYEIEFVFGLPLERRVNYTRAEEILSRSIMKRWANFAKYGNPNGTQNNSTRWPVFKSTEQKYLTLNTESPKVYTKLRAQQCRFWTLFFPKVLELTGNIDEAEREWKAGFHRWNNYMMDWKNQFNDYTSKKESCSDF
Protocol: (§4) […]. This was achieved by performing enzyme kinetic studies on AChE/BuChE in the presence of different concentrations of compounds 30–34 (2–90 µM) at various steady-state substrate concentrations (0.07–5 mM). The interactions between compounds and cholinesterase are represented using classic double-reciprocal Lineweaver-Burk and Dixon plots ([Lineweaver and Burk, 1934]; [Dixon, 1953]). […] The resulting linear equations for compounds 30–34 with BuChE led to a series of lines with different slopes that crossed at similar intercepts on the vertical axis and different points on the horizontal axis.

BuChE [3] = biological target: T2, BuChE; test: biochemical; type: biochemical; conditions: for IC50: 0.05 Unit/mL enzyme, pH 7.4, 37°C, 30 min, triplicate, mean ± SEM; for inhibition at 100 µM: read-out: Inhibition of BuChE
Protocol: as §1, §2, §3

AChE [4] = biological target: T1, AChE; test: Enzyme kinetics on AChE (Lineweaver-Burk and Dixon plots); type: biochemical; conditions: for Ki: Dixon plots, read-out: AChE K i; for AChE Inhibition type: Lineweaver-Burk plots, compound 2–90 µM, substrate 0.07–5 mM
Protocol: as §4

Row | Compound | IC50 (AChE [1]) [µM] | Ki (BuChE [2]) | BuChE Inhibition type (BuChE [2]) | IC50 (BuChE [3]) [µM] | Ki (AChE [4]) [µM] | AChE Inhibition type (AChE [4]) | inhibition at 100 µM (AChE [1]; at 100 µM) [%] | inhibition at 100 µM (AChE [1]) [%] | inhibition at 100 µM (BuChE [3]; at 100 µM) [%] | inhibition at 100 µM (BuChE [3]) [%] | BuChE inhibitory activity relative to Compound 34 (BuChE [3]; from IC50 values (7.5 vs 17.1 µM))
1 | smilaside G [Compound 34] | > 100 | 17.5 µM and ~17.5 µM | Competitive | 17.1 ± 3.4 |  |  |  |  |  |  | 
2 | COc1cc(/C=C/C(=O)OC[C@H]2O[C@H](O[C@]3(COC(=O)/C=C/c4ccc(O)c(OC)c4)O[C@H](COC(=O)/C=C/c4ccc(O)cc4)[C@@H](O)[C@@H]3OC(=O)/C=C/c3ccc(O)cc3)[C@H](O)[C@@H](O)[C@@H]2O)ccc1O [Compound 32, lapathoside A] | 30.6 ± 4.7 | ~1.8 µM | Competitive | 2.7 ± 1.7 | ~34.4 | non-competitive inhibitors | > 60 |  |  |  | 
3 | O=c1cc(-c2ccc(O)cc2)oc2cc(O)cc(O)c12 [Compound 1, apigenin] |  |  |  |  |  |  |  | > 50 | > 50 |  | 
4 | O=c1c(O[C@@H]2O[C@H](CO)[C@@H](O)[C@H](O)[C@H]2O)c(-c2ccc(O)cc2)oc2cc(O)cc(O)c12 [Compound 5, astragalin] |  |  |  |  |  |  |  | > 50 |  | > 50 | 
5 | Oc1cc(O)c2c(c1)O[C@H](c1ccc(O)c(O)c1)[C@H](O)C2 [Compound 19, (-)-epicatechin] |  |  |  |  |  |  | > 50 |  | > 50 |  | 
6 | COc1cc(/C=C/C(=O)OC[C@H]2O[C@@](COC(=O)/C=C/c3ccc(O)c(OC)c3)(O[C@H]3O[C@H](COC(=O)/C=C/c4ccc(O)c(OC)c4)[C@@H](O)[C@H](O)[C@H]3O)[C@@H](OC(=O)/C=C/c3ccc(O)cc3)[C@@H]2O)ccc1O [Compound 30, lapathoside B] | > 100 | ~12.1 µM | Competitive | 10.9 ± 4.9 |  |  |  |  |  |  | 
7 | COc1cc(/C=C/C(=O)OC[C@H]2O[C@H](O[C@]3(COC(=O)/C=C/c4ccc(O)cc4)O[C@H](COC(=O)/C=C/c4ccc(O)cc4)[C@@H](O)[C@@H]3OC(=O)/C=C/c3ccc(O)cc3)[C@H](O)[C@@H](O)[C@@H]2O)ccc1O [Compound 31, vanicoside B] | 32.3 ± 4.7 | ~3.5 µM | Competitive | 7.5 ± 4.1 | ~30 | non-competitive inhibitors | > 60 |  |  |  | over 2 fold
8 | smilaside J [Compound 33] | 56 ± 2.4 | ~8.5 µM | Competitive | 10.1 ± 4.6 |  |  |  |  |  |  | 

From paper PMC9313597, “In Vitro and in Silico Analysis of Phytochemicals From Fallopia dentatoalata as Dual Functional Cholinesterase Inhibitors for the Treatment of Alzheimer’s Disease” (Frontiers in Pharmacology, 2022)
